Data reported in patent US20090016991A1, “Rxr Antagonist Treatment Against Multiple Sclerosis” (priority 2004, published 2009).
Entries after “also recorded” stand apart in the source; their conditions may differ.

Tests used:
MMP-9 = MMP-9 protein expression in human PBMC (zymography and ELISA); format: cell-based; settings: for MMP-9 Inhibition of expression: vs vehicle control (0%)
Excerpt: For details on the method see: (A) Effect of RXR antagonists on expression of MMP-9 protein in human peripheral blood mononuclear cells (PBMC) in vitro, Leppert D et al, J Immunol 1995, 154:4379-4389; (B) Leppert D et al, Ann Neurol 1996, 40: 846-852; (C) Leppert D et al, Brain 1998, 121, 2327-2334; (D) Lindberg R et al, Brain 2001, 124: 1743-1753; (E) Gilli F et al, Brain 2004, 127: 1-10, which are incorporated by reference herein, especially with regard to the method.
Method: Fresh human peripheral blood mononuclear cells (PBMC) were prepared and expanded by stimulation with PHA as described in Leppert D et al, Ann Neurol 1996; 40: 846-852. 1×10^6 cells were pretreated with the RXR antagonist compound A in concentrations of 10^−6 M, 10^−7 M and 10^−8 M for 18 hours. Vehicle was used as control.
In two different experiments, after pretreatment with compound A, PBMCs were stimulated for 24 hours with Interleukin-2 (IL-2) 50 U/ml in one group, or not stimulated with IL-2 in another group.
The effect of the mentioned concentrations of compound A was compared with vehicle controls in the IL-2 stimulated and in the non IL-2 stimulated cultures of PBMC. The expression of MMP-9 protein was determined by analysis with zymography and ELISA, see especially references (A) under “Zymographic analysis of conditioned medium (CM)” and (C) under “ELISA (enzyme linked immunosorbent assay) for MMP-9” mentioned above, respectively.

synovial fibroblasts = experiment: In vitro cartilage degradation by RA synovial fibroblasts (sGAG release); format: cell-based, human; settings: for Release of sGAG: 14 days
Description: (§1) Methods: The effect of RXR antagonists on the activity of synovial fibroblasts, dependent on their state of activation, i.e. modified by a concomitant stimulation by the inflammatory cytokine Interleukin-1β (IL-1β), was determined. Furthermore, it was determined whether this was accompanied by a modulation in the accumulation of the mRNA encoding catabolic enzyme matrix metalloproteinase-1 (MMP-1), responsible for degradation of human cartilage and consequently joint destruction in man. Adherent synovial fluid cells taken from a patient with RA were used after 5 passages in an in vitro assay for cartilage destruction. The cells incubated in flasks coated with 0.1% (0.1 g/100 ml) human cartilage powder were fixed using Matrigel® (BD Biosciences, Becton, Dickinson & Co., Boston, Mass., USA). The release of sulphated glycosaminoglycan (sGAG) into the culture medium was monitored by a commercial colorimetric test according to a method described by S. Björnsson, see Anal. Biochem. 256, 229-237 (1998) using an alcian blue dot plot analysis, and the accumulation of mRNA encoding MMP-1 was quantified by real time PCR (TaqMan® (Roche Diagnostics, Basle, Switzerland)).
The retinoid agonists all-trans retinoic acid and 9-cis retinoic acid, both physiological metabolites of vitamin A, as well as the RXR antagonist compound A, diluted first in ethanol, and then diluted with vehicle or medium to the desired dose/concentration were tested in a time course (0-35 days for the in vitro assay, 0-48 hours for MMP-1 mRNA, see tables 7, 8 and 10) and dose-dependent (10^−7 to 10^−9 M, see tables 5, 6 and 9). This was conducted in the presence or absence of IL-1β (100 pg/ml).

MMP-1 mRNA = MMP-1 mRNA accumulation in synovial fibroblasts (real time PCR); format: cell-based, human
Description: as §1, with “Switzerland)). […] This was conducted in the presence or absence of IL-1β (100 pg/ml).” for “Switzerland)).”

[1] = absence of IL-1β, 10^−7 M, vehicle control 48
[2] = absence of IL-1β, 10^−8 M, vehicle control 48
[3] = absence of IL-1β, 10^−8 M, day 7, control 23
[4] = absence of IL-1β, 10^−8 M, day 14, control 48
[5] = absence of IL-1β, 10^−8 M, day 21, control 84
[6] = absence of IL-1β, 10^−8 M, day 28, control 112
[7] = absence of IL-1β, 10^−8 M, day 35, control 117
[8] = absence of IL-1β, 10^−9 M, vehicle control 48
[9] = presence of 100 pg/ml IL-1β, 10^−7 M, vehicle control 173
[10] = presence of 100 pg/ml IL-1β, 10^−8 M, vehicle control 173
[11] = presence of 100 pg/ml IL-1β, 10^−8 M, day 7, control 86
[12] = presence of 100 pg/ml IL-1β, 10^−8 M, day 14, control 173
[13] = presence of 100 pg/ml IL-1β, 10^−8 M, day 21, control 212
[14] = presence of 100 pg/ml IL-1β, 10^−8 M, day 28, control 249
[15] = presence of 100 pg/ml IL-1β, 10^−8 M, day 35, control 271
[16] = presence of 100 pg/ml IL-1β, 10^−9 M, vehicle control 173
[17] = 10^−7 M, after 24 hours, vehicle control 1
[18] = 10^−8 M, 12 hours, control 1.13
[19] = 10^−8 M, 48 hours, control 1.09
[20] = 10^−8 M, after 24 hours, vehicle control 1
[21] = 10^−9 M, after 24 hours, vehicle control 1

| SMILES | Release of sGAG (synovial fibroblasts; [1]) | Release of sGAG (synovial fibroblasts; [2]) | Cumulative sGAG release (synovial fibroblasts; [3]) | Cumulative sGAG release (synovial fibroblasts; [4]) | Cumulative sGAG release (synovial fibroblasts; [5]) | Cumulative sGAG release (synovial fibroblasts; [6]) | Cumulative sGAG release (synovial fibroblasts; [7]) | Release of sGAG (synovial fibroblasts; [8]) | Effect on cartilage destruction in vitro (basal activity of synovial fibroblasts) (synovial fibroblasts; absence of IL-1β, in words) | Release of sGAG (synovial fibroblasts; [9]) | Release of sGAG (synovial fibroblasts; [10]) | Cumulative sGAG release (synovial fibroblasts; [11]) | Cumulative sGAG release (synovial fibroblasts; [12]) | Cumulative sGAG release (synovial fibroblasts; [13]) | Cumulative sGAG release (synovial fibroblasts; [14]) | Cumulative sGAG release (synovial fibroblasts; [15]) | Release of sGAG (synovial fibroblasts; [16]) | MMP-1 mRNA (fold increase of baseline value) (MMP-1 mRNA; [17]) | MMP-1 mRNA (fold increase of baseline value) (MMP-1 mRNA; 10^−8 M, 0 hours) | MMP-1 mRNA (fold increase of baseline value) (MMP-1 mRNA; 10^−8 M, 2 hours) | other results |
| --- | --- | --- | --- | --- | --- | --- | --- | --- | --- | --- | --- | --- | --- | --- | --- | --- | --- | --- | --- | --- | --- |
| CCCCOc1c(\C(C)=C/C=C/C(C)=C/C(=O)O)cc(C(C)(C)C)cc1C(C)(C)C [compound A, (2E,4E,6Z)-7-[2-butoxy-3,5-bis(1,1-dimethylethyl)phenyl]-3-methyl-2,4,6-octatrienoic acid] | 39 µg/mL | 57 µg/mL | 44 µg/mL | 57 µg/mL | 57 µg/mL | 39 µg/mL | 34 µg/mL | 46 µg/mL | no effect | 41 µg/mL | 89 µg/mL | 67 µg/mL | 89 µg/mL | 89 µg/mL | 173 µg/mL | 56 µg/mL | 144 µg/mL | 0.68 relative units | 1 relative units | 1.13 relative units | Effect on production, release and/or activity (expression) of MMP-9 (MMP-9; PBMC, IL-2 stimulated and not stimulated, ELISA and zymography, in words): very strong suppressive effect; also recorded: marked suppressive or inhibitory effect; MMP-9 Protein (total protein in the supernatant) (MMP-9; PBMCs not stimulated with IL-2, 10^−6 M, 18 h pretreatment): 33 ng/mL; MMP-9 Inhibition of expression (MMP-9; PBMCs not stimulated with IL-2, 10^−6 M): 53%; MMP-9 Protein (total protein in the supernatant) (MMP-9; PBMCs not stimulated with IL-2, 10^−7 M, 18 h pretreatment): 43 ng/mL; MMP-9 Inhibition of expression (MMP-9; PBMCs not stimulated with IL-2, 10^−7 M): 39%; MMP-9 Protein (total protein in the supernatant) (MMP-9; PBMCs not stimulated with IL-2, 10^−8 M, 18 h pretreatment): 51 ng/mL; MMP-9 Inhibition of expression (MMP-9; PBMCs not stimulated with IL-2, 10^−8 M): 28%; MMP-9 Protein (total protein in the supernatant) (MMP-9; PBMCs stimulated with IL-2 50 U/ml 24 h, 10^−6 M): 29 ng/mL; MMP-9 Protein (total protein in the supernatant) (MMP-9; PBMCs stimulated with IL-2 50 U/ml 24 h, 10^−7 M): 41 ng/mL; MMP-9 Protein (total protein in the supernatant) (MMP-9; PBMCs stimulated with IL-2 50 U/ml 24 h, 10^−8 M): 40 ng/mL; MMP-9 Inhibition of expression (MMP-9; PBMCs stimulated with IL-2, 10^−6 M): 52%; MMP-9 Inhibition of expression (MMP-9; PBMCs stimulated with IL-2, 10^−7 M): 33%; MMP-9 Inhibition of expression (MMP-9; PBMCs stimulated with IL-2, 10^−8 M): 34%; Effect on IL-1β dependent cartilage destruction (sGAG) (synovial fibroblasts; presence of IL-1β, in words): markedly inhibited; MMP-1 mRNA (fold increase of baseline value) (MMP-1 mRNA; 10^−8 M, 6 hours): 0.81 relative units; MMP-1 mRNA (fold increase of baseline value) (MMP-1 mRNA; [18]): 1.12 relative units; MMP-1 mRNA (fold increase of baseline value) (MMP-1 mRNA; 10^−8 M, 24 hours): 0.87 relative units; MMP-1 mRNA (fold increase of baseline value) (MMP-1 mRNA; [19]): 0.83 relative units; MMP-1 mRNA (fold increase of baseline value) (MMP-1 mRNA; [20]): 1.12 relative units; MMP-1 mRNA (fold increase of baseline value) (MMP-1 mRNA; [21]): 1.05 relative units |
| CC1=C(/C=C/C(C)=C\C=C\C(C)=C\C(=O)O)C(C)(C)CCC1 [9-cis RA, 9-cis retinoic acid, reference compound] | 189 µg/mL | 107 µg/mL | 44 µg/mL | 107 µg/mL | 206 µg/mL | 253 µg/mL | 292 µg/mL | 64 µg/mL | increased cartilage destruction in vitro in a dose-dependent manner | 221 µg/mL | 189 µg/mL | 68 µg/mL | 189 µg/mL | 330 µg/mL | 407 µg/mL | 441 µg/mL | 204 µg/mL | 2.60 relative units | 1 relative units | 0.98 relative units | Effect on cartilage destruction in vitro, time course (synovial fibroblasts; presence and absence of IL-1β, in words): markedly increased cartilage destruction; MMP-1 mRNA (fold increase of baseline value) (MMP-1 mRNA; 10^−8 M, 6 hours): 1.31 relative units; MMP-1 mRNA (fold increase of baseline value) (MMP-1 mRNA; [18]): 3.39 relative units; MMP-1 mRNA (fold increase of baseline value) (MMP-1 mRNA; 10^−8 M, 24 hours): 3.79 relative units; MMP-1 mRNA (fold increase of baseline value) (MMP-1 mRNA; [19]): 1.47 relative units; MMP-1 mRNA (fold increase of baseline value) (MMP-1 mRNA; [20]): 3.39 relative units; MMP-1 mRNA (fold increase of baseline value) (MMP-1 mRNA; [21]): 1.54 relative units |
